Measured values as given in patent publication US11667652B2, “MCL1 inhibitors” (Gilead Sciences, Inc., priority 2019, dated 2023).
Values joined by “and” are separate entries in the source; they are usually repeats but may differ in a detail not shown here. Equal entries are not always repeated. Where two headings read alike, the source gives them in different places.

Columns and labels:
MCL1/Bim = MCL1/Bim (Homo sapiens (Human), UniProt Q07820); assay: MCL1/Bim Binding AlphaLISA Assay; conditions: recombinant human 6xHis-MCL1 (171-327), biotinylated Bim peptide (51-76)
Protocol: MCL1/Bim Binding AlphaLISA Assay.
Inhibition of the MCL1 and Bim interaction was measured in the following AlphaLISA assay.
Recombinant human MCL1 protein (C-terminal 6×His Tagged MCL1 containing residues 171-327) was generated at Gilead Sciences, Inc. (Foster City, Calif.). A biotinylated peptide derived from human Bim (residues 51-76) was purchased from CPC Scientific (Sunnyvale, Calif.). (CPC 834113). AlphaLISA anti-6His- acceptor beads (AL128R), AlphaScreen Streptavidin donor beads (6760002B), and Proxiplate-384 Plus (6008289) were purchased from PerkinElmer.
The AlphaLISA assay was performed in a 384-well Proxiplate in a total volume of […]. The reaction mixture contained 0.0625 nM 6×His-MCL1 (171-327), 0.0625 nM biotinylated-Bim peptide, 10 μg/mL AlphaLISA anti-6×His-AlphaLISA acceptor beads, 40 μg/mL AlphaScreen streptavidin donor beads, and serially diluted test compounds in the binding buffer (20 mM Hepes, pH 7.5 (Teknova H1035); 150 mM NaCl (Promega V4221); 0.002% Brij 35 (Thermo Scientific 20150); 1 mM Dithiothreitol (DTT) Solution (Affymetrix 70726); 0.01% BSA (BioLabs B9000S)). 1,000× test compounds were pre-spotted onto 384-well Proxiplate (Labcyte Echo) by Echo 555 Liquid Handler (Labcyte Inc., San Jose, Calif.) followed by incubation of 5 μL MCL1(171-327) for 1 hour. Then 5 μL Bim (51-76) was added and incubated for 2 hours. Five μL AlphaLISA anti-6His-AlphaLISA acceptor beads were then added for 1 hour followed by addition of 5 μL AlphaScreen streptavidin donor beads for 1 hour. The reaction plates were then read on an Envision multimode reader (PerkinElmer) using AlphaScreen settings. Percent inhibition was calculated as shown below: % Inhibition=100%*(Well−Neg)/(Pos−Neg) Neg: negative control, DMSO Pos: positive control, no MCL1 protein, no biotinylated-Bim peptide

SKBR3 cells = assay: SKBR3 Cell Viability Assay; format: cell-based; conditions: CellTiter Glo, read-out: MCL1 CV SKBR3 EC50
Protocol: SKBR3 Cell Viability Assay Materials
SKBR3 Cells (ATCC HTB-30) were obtained from ATCC (Manassas, Va.) and cultured in McCoy 5A's medium (ATCC 30-2007)+10% fetal bovine serum (SH30071.03, HyClone, Pittsburgh, Pa.) plus 1× Penicillin-Streptomycin L-glutamine (Corning 30-009-CI, Corning, N.Y.).
The cell viability assay was conducted in a 384-well tissue culture plate (Grenier 781086, Monroe, N.C.) in a total volume of 70 μL. Test compounds were prepared in 1,000×, serially diluted, and pre-spotted into 384-well tissue culture plate by Echo 555 Liquid Handler (Labcyte Inc., San Jose, Calif.). Seventy μL of 6,000 SKBR3 cells were dispensed into each well of the plate and incubated at 37° C. with 5% CO2 for 72 hours. At the end of incubation, 2× CellTiter Glo (CTG) reagents (1 part buffer with 2 parts substrate) (Promega, Madison, Wis.) were prepared, and the plate and the reagent were equilibrated to room temperature for 30 minutes. CTG reagent was added to each plate by Biomek FX at 20 μL/well with 5 times pipetting and mixing to induce cell lysis. Luminescence was read by Envision multimode reader (PerkinElmer). Percent inhibition was calculated as followed: % Inhibition=100%*(Well−Neg)/(Pos−Neg) Neg, negative control, DMSO Pos, positive control, 10 μM Puromycin

[1] = Homo sapiens, SK-BR-3, 72 hours

MCL1/Bim, sequence (Q07820 171-327): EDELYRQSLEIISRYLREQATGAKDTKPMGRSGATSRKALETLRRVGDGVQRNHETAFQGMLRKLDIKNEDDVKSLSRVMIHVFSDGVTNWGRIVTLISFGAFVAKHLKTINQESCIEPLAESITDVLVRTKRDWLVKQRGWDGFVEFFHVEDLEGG

SMILES | IC50 (MCL1/Bim) | EC50 (SKBR3 cells; [1]) [nM] | EC50 (SKBR3 cells; 72 hours) [nM]
COc1ncc2c(N[S@@]3(=O)=NC(=O)c4ccc5c(c4)N(C[C@@H]4CC[C@H]4[C@@H](OC)/C=C/C[C@H](C)C3)C[C@@]3(CCCc4cc(Cl)ccc43)CO5)ncnc2n1 [Example 22] | 0.121 nM | 169 | –
COc1nnc(NS2(=O)=NC(=O)c3ccc4c(c3)N(C[C@@H]3CC[C@H]3[C@@H](OC)/C=C/C[C@H](C)C2)C[C@@]2(CCCc3cc(Cl)ccc32)CO4)c2nn(C)cc12 (stereo partly shown) [Example 17] | 2.39 nM | – | 4550
COc1nn(C)cc1C(=O)N[S@@]1(=O)=NC(=O)c2ccc3c(c2)N(C[C@@H]2CC[C@H]2[C@@H](OC)/C=C/[C@H](OCc2ncccn2)[C@H](C)C1)C[C@@]1(CCCc2cc(Cl)ccc21)CO3 [Example 74] | 0.06 nM | 187 | –
C=CCO[C@@H]1/C=C/C[C@H](C)C[S@@](=O)(NC(=O)c2cn(C)nc2OC)=NC(=O)c2ccc3c(c2)N(C[C@@H]2CC[C@H]21)C[C@@]1(CCCc2cc(Cl)ccc21)CO3 [Example 55] | 0.332 nM | – | 426
COc1nn(C)cc1C(=O)N[S@@]1(=O)=NC(=O)c2ccc3c(c2)N(C[C@@H]2CC[C@H]2[C@@H](OC)/C=C/[C@H](OCCN2CC4(CN(C)C4)C2)[C@H](C)C1)C[C@@]1(CCCc2cc(Cl)ccc21)CO3 [Example 87] | 0.19 nM | 1090 | –
COc1nn(C)cc1C(=O)N[S@@]1(=O)=NC(=O)c2ccc3c(c2)N(C[C@@H]2CC[C@H]2[C@@H](OC)/C=C/[C@H](OCCN2CCN(C4COC4)CC2)[C@H](C)C1)C[C@@]1(CCCc2cc(Cl)ccc21)CO3 [Example 79] | 0.062 nM | – | 42.9
COc1nn(C)cc1C(=O)N[S@@]1(=O)=NC(=O)c2ccc3c(c2)N(C[C@@H]2CC[C@H]2[C@](O)(CC(=O)N2CCN4CCOCC4C2)/C=C/C[C@H](C)C1)C[C@@]1(CCCc2cc(Cl)ccc21)CO3 (stereo partly shown) [Example 103] | 0.074 nM | – | 34.6
COc1nn(C)cc1C(=O)N[S@@]1(=O)=NC(=O)c2ccc3c(c2)N(C[C@@H]2CC[C@H]2[C@@H](OCCN2CC(C(F)F)C2)/C=C/C[C@H](C)C1)C[C@@]1(CCCc2cc(Cl)ccc21)CO3 [Example 62] | 0.069 nM | 17.5 | –
COc1nn(C)cc1C(=O)N[S@@]1(=O)=NC(=O)c2ccc3c(c2)N(C[C@@H]2CC[C@H]2[C@H](OC)/C=C/[C@H](OC(C)=O)[C@H](C)[C@H]1C)C[C@@]1(CCCc2cc(Cl)ccc21)CO3 [Example 92] | 2.59 nM | – | 796
C[C@H]1C/C=C/[C@H](OC(=O)c2cnn(C)c2)[C@@H]2CC[C@H]2CN2C[C@@]3(CCCc4cc(Cl)ccc43)COc3ccc(cc32)C(=O)N=[S@](=O)(NC(=O)c2cnn(C)c2)C1 [Example 51] | 0.222 nM | 433 | –
COc1nn(C)cc1C(=O)N[S@@]1(=O)=NC(=O)c2ccc3c(c2)N(C[C@@H]2CC[C@H]2/C=C/[C@@H](O)[C@H](NC(C)=O)[C@H](C)C1)C[C@@]1(CCCc2cc(Cl)ccc21)CO3 [Example 119] | 0.035 nM | – | 244
COc1nn(C)cc1C(=O)N[S@@]1(=O)=NC(=O)c2ccc3c(c2)N(C[C@@H]2CC[C@H]2[C@@H](OC)/C=C/[C@@H](OC)[C@H](C)C1)C[C@@]1(CCCc2cc(Cl)ccc21)CO3 [Example 93] | 0.457 nM | 556 | –
COc1nn(C)cc1C(=O)N[S@@]1(=O)=NC(=O)c2ccc3c(c2)N(C[C@@H]2CC[C@H]2[C@@H](OC)/C=C/[C@H](OCCN2CC(OC)C2)[C@H](C)C1)C[C@@]1(CCCc2cc(Cl)ccc21)CO3 [Example 81] | 0.011 nM | 6.3 | –
CCn1ccc(OC[C@H]2C/C=C/[C@H](OC)[C@@H]3CC[C@H]3CN3C[C@@]4(CCCc5cc(Cl)ccc54)COc4ccc(cc43)C(=O)N=[S@@](=O)(NC(=O)COC3CCOCC3)C2)n1 [Example 46] | 0.521 nM | – | 1600
COc1nn(C)cc1C(=O)N[S@@]1(=O)=NC(=O)c2ccc3c(c2)N(C[C@@H]2CC[C@H]2[C@@](C)(OC)/C=C/C[C@H](C)C1)C[C@@]1(CCCc2cc(Cl)ccc21)CO3 [Example 95] | 4.39 nM | 3630 | –
CO[C@H]1/C=C/CCC[S@@](=O)(Nc2ncnc3nn(C)cc23)=NC(=O)c2ccc3c(c2)N(C[C@@H]2CC[C@H]21)C[C@@]1(CCCc2cc(Cl)ccc21)CO3 [Example 26] | 0.224 nM and 0.233 nM | 119 | –

Further lines, results first:

IC50 (MCL1/Bim) | EC50 (SKBR3 cells; [1]) [nM] | EC50 (SKBR3 cells; 72 hours) [nM] | SMILES
0.1 nM | 85 | – | CO[C@H]1/C=C/C[C@H](C)[C@@H](C)[S@@](=O)(NC(=O)c2cnn(C3COC3)c2)=NC(=O)c2ccc3c(n2)N(C[C@@H]2CC[C@H]21)C[C@@]1(CCCc2cc(Cl)ccc21)CO3 [Example 201]
0.46 nM | – | 2560 | COc1nn(C)cc1C(=O)N[S@@]1(=O)=NC(=O)c2ccc3c(c2)N(C[C@@H]2CC[C@H]2C/C=C/C[C@H](C)C1)C[C@@]1(CCCc2cc(Cl)ccc21)CO3 (mixture of isomers) [Example 130]
0.321 nM | – | 1470 | COc1nn(C)cc1C(=O)N[S@@]1(=O)=NC(=O)c2ccc3c(c2)N(C[C@@H]2CC[C@H]2/C=C/[C@H]2OCCO[C@@H]2[C@H](C)C1)C[C@@]1(CCCc2cc(Cl)ccc21)CO3 [Example 154]
0.05 nM | 21.1 | – | CO[C@H]1/C=C/C[C@H](C)[C@@H](C)[S@@](=O)(NC(=O)c2cnn(C)c2)=NC(=O)c2ccc3c(n2)N(C[C@@H]2CC[C@H]21)C[C@@]1(CCCc2cc(Cl)ccc21)CO3 [Example 200]
0.643 nM | 1370 | – | COc1nn(C)cc1C(=O)N[S@@]1(=O)=NC(=O)c2ccc3c(c2)N(C[C@@H]2CC[C@H]2[C@@H](OC)[C@H](OC)/C=C\[C@H](C)C1)C[C@@]1(CCCc2cc(Cl)ccc21)CO3 [Example 133]
0.057 nM | 92.2 | – | COc1nn(C)cc1C(=O)N[S@@]1(=O)=NC(=O)c2ccc3c(c2)N(C[C@@H]2CC[C@H]2[C@@H](OC)C[C@H]2CCO[C@@H]2[C@H](C)C1)C[C@@]1(CCCc2cc(Cl)ccc21)CO3 [Example 135]
0.06 nM | 72.5 | – | CO[C@H]1/C=C/C[C@H](C)C[S@@](=O)(NC(=O)c2cnn(C)c2)=NC(=O)c2ccc3c(c2)N(C[C@@H]2CC[C@H]21)C[C@]1(CO3)SCCc2cc(Cl)ccc21 [Example 176]
0.053 nM | 27.7 | – | COc1nn(C)cc1C(=O)N[S@@]1(=O)=NC(=O)c2ccc3c(c2F)N(C[C@@H]2CC[C@H]2C(OC)/C=C/[C@H](OC)[C@H](C)C1)C[C@@]1(CCCc2cc(Cl)ccc21)CO3 (stereo partly shown) [Example 162]
0.033 nM | 10.1 | – | COc1nn(C)cc1C(=O)N[S@@]1(=O)=NC(=O)c2ccc3c(c2)N(C[C@@H]2CC[C@H]2[C@@H](OC)/C=C/C(O)(CC(=O)N(C)C)[C@H](C)C1)C[C@@]1(CCCc2cc(Cl)ccc21)CO3 (mixture of isomers) [Example 124]
0.12 nM | 156 | – | CO[C@H]1/C=C/C[C@H](C)[C@@H](C)[S@@](=O)(NC(=O)COC2CCOCC2)=NC(=O)c2ccc3c(n2)N(C[C@@H]2CC[C@H]21)C[C@@]1(CCCc2cc(Cl)ccc21)CO3 [Example 203]
0.034 nM | – | 35.2 | COc1nn(C)cc1C(=O)N[S@@]1(=O)=NC(=O)c2ccc3c(c2)N(C[C@@H]2CC[C@H]2[C@@H](OC)/C=C/[C@@](C)(O)[C@H](C)C1)C[C@@]1(CCCc2cc(Cl)ccc21)CO3 [Example 120]
0.07 nM | 71.8 | – | CO[C@H]1/C=C/C[C@H](C)C[S@@](=O)(NC(=O)[C@H]2C[C@](C)(O)C2)=NC(=O)c2ccc3c(n2)N(C[C@@H]2CC[C@H]21)C[C@@]1(CCCc2cc(Cl)ccc21)CO3 [Example 189]
0.06 nM | 81.3 | – | CO[C@H]1/C=C/C[C@H](C)[C@@H](C)[S@@](=O)(NC(=O)c2cnn(C)c2)=NC(=O)c2ccc3c(n2)N(C[C@@H]2CC[C@H]21)C[C@]1(CO3)C[C@@H]2C[C@@H]2c2cc(Cl)ccc21 [Example 205]
